US9969742B2, “Imidazotriazinone compounds” (Ironwood Pharmaceuticals, Inc., priority 2012, dated 2018)
Where two headings read alike, the source gives them in different places.

Columns and labels:
Type in all cases: biochemical
[1] = biological target: T1, PDE9A2 (Homo sapiens, UniProt O76083); experiment: Phosphodiesterase enzyme screening assay, PDE9A2
T1 construct: purchased Reaction Biology Corporation, Malvern, Pa
Summary of the method: (§1)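 Microfluidic mobility-shift assay; values from quadruplicate wells relative to controls. Conditions: 4.0 μM cGMP, 5 mM MgCl2, pH 7.5 HEPES, 1 h R.T., EDTA stop.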

[2] = biological target: T2, PDE1A (Homo sapiens, UniProt P54750); experiment: Phosphodiesterase enzyme screening assay, PDE1A
T2 construct: purchased Reaction Biology Corporation, Malvern, Pa
Summary of the method: as §1

[3] = biological target: T3, PDE1B (Homo sapiens, UniProt Q01064); experiment: Phosphodiesterase enzyme screening assay, PDE1B
T3 construct: purchased Reaction Biology Corporation, Malvern, Pa
Summary of the method: as §1

[4] = Table 1, 10 concentrations, 4.0 μM cGMP substrate, 1 hour at R.T., read-out: Band (PDE9A2 IC50)
[5] = Table 1, ratio of IC50 values, value greater than 1 indicates greater selectivity for PDE9A2
[6] = ratio of IC50 values, value greater than 1 indicates greater selectivity for PDE9A2
[7] = Table 2, ratio of IC50 values, value greater than 1 indicates greater selectivity for PDE9A2
[8] = ratio of IC50 values, PDE1A versus PDE9A2, value greater than 1 indicates greater selectivity for PDE9A2
[9] = ratio of IC50 values, PDE1B versus PDE9A2, value greater than 1 indicates greater selectivity for PDE9A2

T2 sequence (P54750 whole entry): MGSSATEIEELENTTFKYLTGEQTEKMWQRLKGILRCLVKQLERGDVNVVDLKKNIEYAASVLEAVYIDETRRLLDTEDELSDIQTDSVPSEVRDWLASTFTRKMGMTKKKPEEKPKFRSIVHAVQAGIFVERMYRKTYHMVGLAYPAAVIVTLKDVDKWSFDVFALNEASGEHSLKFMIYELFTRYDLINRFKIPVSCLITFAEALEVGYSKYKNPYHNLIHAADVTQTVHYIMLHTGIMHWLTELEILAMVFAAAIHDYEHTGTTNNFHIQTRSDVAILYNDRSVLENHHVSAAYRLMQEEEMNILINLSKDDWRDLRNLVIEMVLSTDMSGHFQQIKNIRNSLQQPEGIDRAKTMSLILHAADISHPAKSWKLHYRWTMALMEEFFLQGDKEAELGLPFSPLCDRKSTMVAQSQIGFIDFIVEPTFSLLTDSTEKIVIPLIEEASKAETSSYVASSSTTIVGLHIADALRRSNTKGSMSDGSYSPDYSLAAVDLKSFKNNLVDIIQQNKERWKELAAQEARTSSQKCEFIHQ
T3 sequence (Q01064 whole entry): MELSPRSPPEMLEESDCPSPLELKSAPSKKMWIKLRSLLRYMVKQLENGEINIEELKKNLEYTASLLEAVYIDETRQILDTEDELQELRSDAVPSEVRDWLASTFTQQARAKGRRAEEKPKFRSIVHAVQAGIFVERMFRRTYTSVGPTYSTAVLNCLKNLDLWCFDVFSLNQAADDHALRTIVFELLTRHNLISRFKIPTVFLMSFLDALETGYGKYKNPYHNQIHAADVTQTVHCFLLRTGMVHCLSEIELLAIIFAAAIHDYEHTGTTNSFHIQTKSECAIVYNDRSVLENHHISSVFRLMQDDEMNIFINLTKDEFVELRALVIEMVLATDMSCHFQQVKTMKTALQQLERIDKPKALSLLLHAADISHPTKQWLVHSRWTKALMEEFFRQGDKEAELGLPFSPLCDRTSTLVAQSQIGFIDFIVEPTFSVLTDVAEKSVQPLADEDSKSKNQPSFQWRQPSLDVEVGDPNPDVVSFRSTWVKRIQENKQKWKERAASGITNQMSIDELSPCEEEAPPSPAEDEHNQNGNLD
T1 sequence (O76083 1-533 isoform O76083-2): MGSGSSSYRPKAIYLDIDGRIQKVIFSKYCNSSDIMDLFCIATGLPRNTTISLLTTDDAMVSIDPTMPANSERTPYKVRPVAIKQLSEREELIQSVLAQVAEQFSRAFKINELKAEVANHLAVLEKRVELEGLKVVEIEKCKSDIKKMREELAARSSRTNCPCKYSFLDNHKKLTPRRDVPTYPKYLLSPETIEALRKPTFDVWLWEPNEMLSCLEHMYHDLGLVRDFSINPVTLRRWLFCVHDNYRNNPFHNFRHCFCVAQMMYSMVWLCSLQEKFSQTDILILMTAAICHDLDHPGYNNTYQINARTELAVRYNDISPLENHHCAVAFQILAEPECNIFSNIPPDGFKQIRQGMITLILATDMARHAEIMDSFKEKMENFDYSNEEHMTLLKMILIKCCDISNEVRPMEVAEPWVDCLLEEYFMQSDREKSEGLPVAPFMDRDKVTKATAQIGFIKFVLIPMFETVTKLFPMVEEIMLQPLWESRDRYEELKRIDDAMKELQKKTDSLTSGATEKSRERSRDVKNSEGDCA

Compound | IC50 [1, 4] [nM] | PDE1A selectivity (versus PDE9A2) [2, 5] | PDE1B selectivity (versus PDE9A2) [3, 5] | IC50 ([1]; read-out: Band (PDE9A2 IC50)) [nM] | also measured
CC1CN(Cc2ccnnc2)CC1c1nn2c(C3CCOCC3)ncc2c(=O)[nH]1 (single isomer, unassigned; (+)) [(+)-2-((3,4-trans)-4-methyl-1-(pyridazin-4-ylmethyl)pyrrolidin-3-yl)-7-(tetrahydro-2H-pyran-4-yl)imidazo[5,1-f][1,2,4]triazin-4(3H)-one] | < 1000 | 71 | 99 |  | 
CC1CN(CC2CCC(F)(F)CC2)CC1c1nn2c(C3CCOCC3)ncc2c(=O)[nH]1 (single isomer, unassigned; (+)) [(+)-2-((3,4-trans)-1-((4,4-difluorocyclohexyl)methyl)-4-methylpyrrolidin-3-yl)-7-(tetrahydro-2H-pyran-4-yl)imidazo[5,1-f][1,2,4]triazin-4(3H)-one] |  |  |  | < 1000 | PDE1A selectivity (versus PDE9A2) [2, 6]: 51; PDE1B selectivity (versus PDE9A2) [3, 6]: 68
Cc1cc(CN2CC(C)C(c3nn4c(C5CCOCC5)ncc4c(=O)[nH]3)C2)n(C)n1 (single isomer, unassigned; (+)) [(+)-2-((3,4-trans)-1-((1,3-dimethyl-1H-pyrazol-5-yl)methyl)-4-methylpyrrolidin-3-yl)-7-(tetrahydro-2H-pyran-4-yl)imidazo[5,1-f][1,2,4]triazin-4(3H)-one] | < 1000 | 487 | 670 |  | 
CC1CN(Cc2ncc(N3CCCC3)cn2)CC1c1nn2c(C3CCOCC3)ncc2c(=O)[nH]1 (single isomer, unassigned; (+)) [(+)-2-((3,4-trans)-4-methyl-1-((5-(pyrrolidin-1-yl)pyrimidin-2-yl)methyl)pyrrolidin-3-yl)-7-(tetrahydro-2H-pyran-4-yl)imidazo[5,1-f][1,2,4]triazin-4(3H)-one] |  |  |  |  | IC50 ([1]; Table 2, 10 concentrations, 4.0 μM cGMP substrate, 1 hour at R.T., read-out: Band (PDE9A2 IC50)): < 1000 nM; PDE1A selectivity (versus PDE9A2) [2, 7]: 105; PDE1B selectivity (versus PDE9A2) [3, 7]: 496
Cc1cc(F)c(F)cc1-c1ncc2c(=O)[nH]c(C3CN(Cc4ncccn4)CC3C)nn12 (single isomer, unassigned; (+)) [(+)-7-(4,5-difluoro-2-methylphenyl)-2-((3,4-trans)-4-methyl-1-(pyrimidin-2-ylmethyl)pyrrolidin-3-yl)imidazo[5,1-f][1,2,4]triazin-4(3H)-one] |  |  |  | < 1000 | PDE1A selectivity (versus PDE9A2) [2, 8]: 44; PDE1B selectivity (versus PDE9A2) [3, 9]: 85
CC1CN(Cc2ccsc2)CC1c1nn2c(C3CCOCC3)ncc2c(=O)[nH]1 (single isomer, unassigned; (+)) [(+)-2-((3,4-trans)-4-methyl-1-(thiophen-3-ylmethyl)pyrrolidin-3-yl)-7-(tetrahydro-2H-pyran-4-yl)imidazo[5,1-f][1,2,4]triazin-4(3H)-one] |  |  |  |  | IC50 ([1]; Table 3, 4.0 μM cGMP substrate, 1 hour at R.T., read-out: Band (PDE9A2 IC50)): < 1000 nM; PDE1A selectivity (versus PDE9A2) ([2]; ratio of IC50 values, PDE1A versus PDE9A2, value greater than 1 = greater selectivity for PDE9A2): 176; PDE1B selectivity (versus PDE9A2) ([3]; ratio of IC50 values, PDE1B versus PDE9A2, value greater than 1 = greater selectivity for PDE9A2): 209
CC1CN(Cc2ccc(F)cc2)CC1c1nn2c(C3CCC(F)(F)CC3)ncc2c(=O)[nH]1 (single isomer, unassigned; (+)) [(+)-(4,4-difluorocyclohexyl)-2-((3,4-trans)-1-(4-fluorobenzyl)-4-methylpyrrolidin-3-yl)imidazo[5,1-f][1,2,4]triazin-4(3H)-one] | < 1000 | 1453 | 2980 |  | 
CC1CN(Cc2ccccc2N(C)C)CC1c1nn2c(C3CCOCC3)ncc2c(=O)[nH]1 (single isomer, unassigned; (+)) [(+)-2-((3,4-trans)-1-(2-(dimethylamino)benzyl)-4-methylpyrrolidin-3-yl)-7-(tetrahydro-2H-pyran-4-yl)imidazo[5,1-f][1,2,4]triazin-4(3H)-one] | < 1000 | 363 | 279 |  | 
CC1CN(Cc2ccc(F)cc2)CC1c1nn2c(-c3ccccc3)ncc2c(=O)[nH]1 (single isomer, unassigned; (+)) [(+)-2-((3,4-trans)-1-(4-fluorobenzyl)-4-methylpyrrolidin-3-yl)-7-phenylimidazo[5,1-f][1,2,4]triazin-4(3H)-one] |  |  |  | < 1000 | PDE1A selectivity (versus PDE9A2) [2, 8]: 3; PDE1B selectivity (versus PDE9A2) [3, 9]: 7
Cc1cnccc1-c1ncc2c(=O)[nH]c(C3CN(Cc4cn5ccccc5n4)CC3C)nn12 (single isomer, unassigned; (+)) [(+)-2-((3,4-trans)-1-(imidazo[1,2-a]pyridin-2-ylmethyl)-4-methylpyrrolidin-3-yl)-7-(3-methylpyridin-4-yl)imidazo[5,1-f][1,2,4]triazin-4(3H)-one] |  |  |  |  | IC50 ([1]; 4.0 μM cGMP substrate, 1 hour at R.T., read-out: Band (PDE9A2 IC50)): < 1000 nM; PDE1A selectivity (versus PDE9A2) ([2]; ratio of IC50 values PDE1A / PDE9A2, value greater than 1 indicates greater selectivity for PDE9A2): 155; PDE1B selectivity (versus PDE9A2) ([3]; ratio of IC50 values PDE1B / PDE9A2, value greater than 1 indicates greater selectivity for PDE9A2): 149
CC1CN(Cc2cnc3ccccc3n2)CC1c1nn2c(C3CCOCC3)ncc2c(=O)[nH]1 (single isomer, unassigned; (+)) [(+)-2-((3,4-trans)-4-methyl-1-(quinoxalin-2-ylmethyl)pyrrolidin-3-yl)-7-(tetrahydro-2H-pyran-4-yl)imidazo[5,1-f][1,2,4]triazin-4(3H)-one] | < 1000 | 453 | 1130 |  | 
CC1CN(Cc2ccccn2)CC1c1nn2c(C3CCOCC3)ncc2c(=O)[nH]1 (single isomer, unassigned; (+)) [(+)-2-((3,4-trans)-4-methyl-1-(pyridin-2-ylmethyl)pyrrolidin-3-yl)-7-(tetrahydro-2H-pyran-4-yl)imidazo[5,1-f][1,2,4]triazin-4(3H)-one] | < 1000 | 373 | 470 |  | 
CC1CN(CC2CCOCC2)CC1c1nn2c(C3CCOCC3)ncc2c(=O)[nH]1 (single isomer, unassigned; (+)) [(+)-2-((3,4-trans)-4-methyl-1-((tetrahydro-2H-pyran-4-yl)methyl)pyrrolidin-3-yl)-7-(tetrahydro-2H-pyran-4-yl)imidazo[5,1-f][1,2,4]triazin-4(3H)-one] |  |  |  | < 1000 | PDE1A selectivity (versus PDE9A2) [2, 6]: 77; PDE1B selectivity (versus PDE9A2) [3, 6]: 93
CC1CN(Cc2nc3ccccn3n2)CC1c1nn2c(-c3ccc(F)cc3)ncc2c(=O)[nH]1 (single isomer, unassigned; (+)) [(+)-2-((3,4-trans)-1-([1,2,4]triazolo[1,5-a]pyridin-2-ylmethyl)-4-methylpyrrolidin-3-yl)-7-(4-fluorophenyl)imidazo[5,1-f][1,2,4]triazin-4(3H)-one] |  |  |  | < 1000 | PDE1A selectivity (versus PDE9A2) [2, 8]: 87; PDE1B selectivity (versus PDE9A2) [3, 9]: 87
CC1CN(Cc2ccccc2C#N)CC1c1nn2c(C3CCOCC3)ncc2c(=O)[nH]1 (single isomer, unassigned; (+)) [(+)-2-(((3,4-trans)-3-methyl-4-(4-oxo-7-(tetrahydro-2H-pyran-4-yl)-3,4-dihydroimidazo[5,1-f][1,2,4]triazin-2-yl)pyrrolidin-1-yl)methyl)benzonitrile] | < 1000 | 241 | 220 |  | 
Cc1ccccc1-c1ncc2c(=O)[nH]c(C3CN(Cc4ccccn4)CC3C)nn12 (single isomer, unassigned; (+)) [(+)-2-((3,4-trans)-4-methyl-1-(pyridin-2-ylmethyl)pyrrolidin-3-yl)-7-(o-tolyl)imidazo[5,1-f][1,2,4]triazin-4(3H)-one] |  |  |  | < 1000 | PDE1A selectivity (versus PDE9A2) [2, 8]: 73; PDE1B selectivity (versus PDE9A2) [3, 9]: 148
CC1CN(Cc2ncco2)CC1c1nn2c(C3CCOCC3)ncc2c(=O)[nH]1 (single isomer, unassigned; (+)) [(+)-2-((3,4-trans)-4-methyl-1-(oxazol-2-ylmethyl)pyrrolidin-3-yl)-7-(tetrahydro-2H-pyran-4-yl)imidazo[5,1-f][1,2,4]triazin-4(3H)-one] |  |  |  | < 1000 | PDE1A selectivity (versus PDE9A2) [2, 6]: 81; PDE1B selectivity (versus PDE9A2) [3, 6]: 119
Cc1cc(F)ccc1-c1ncc2c(=O)[nH]c(C3CN(Cc4ccccn4)CC3C)nn12 (single isomer, unassigned; (+)) [(+)-7-(4-fluoro-2-methylphenyl)-2-((3,4-trans)-4-methyl-1-(pyridin-2-ylmethyl)pyrrolidin-3-yl)imidazo[5,1-f][1,2,4]triazin-4(3H)-one] |  |  |  |  | IC50 ([1]; IC50 band, 4.0 μM cGMP substrate, 1 hour at R.T.): < 1000 nM; PDE1A selectivity (versus PDE9A2) ([2]; ratio of IC50 values PDE1A vs PDE9A2, value greater than 1 indicates greater selectivity for PDE9A2): 5780; PDE1B selectivity (versus PDE9A2) ([3]; ratio of IC50 values PDE1B vs PDE9A2, value greater than 1 indicates greater selectivity for PDE9A2): 374
